These are literature values, as cited in PMC8155022 (Scientific Reports, 2021).

Series [1] has as its system patients with moderate to severe plaque psoriasis. On the set-up: method as in earlier work. To be noted: 4 weeks of treatment, cited from earlier work.
The subject of series [2] is activated CCR6+ T cells from human peripheral blood. On the set-up: method as in PMID 27905482. As to conditions: cited from earlier work.

As for `CCS(=O)(=O)c1ccc(CNC(=O)c2cnc3c(c2)CN(C[C@H]2CC[C@H](C(F)(F)F)CC2)[C@H]3C(C)C)nc1` [VTP-43742], the “reduction of IL-17A and IL-17F in patient serum” value in series [1] is given as “up to 75%”. In series [1] (Phase 2a), the “efficacy in patients with moderate to severe plaque psoriasis” value was “showed efficacy”.

For `COc1nc2ccc([C@@](O)(c3ccc(C)nc3C)c3cnnn3C)cc2c(Cl)c1Cc1ccc(C(F)(F)F)cc1` [JNJ-54271074], in series [2], the IL-10 production entry is “slightly increased” and the IL-17A production result is “greatly reducing”.
